Source: ChEMBL document CHEMBL1125524, “Adenosine A1 antagonists. 2. Structure-activity relationships on diuretic activities and protective effects against acute renal failure” (J Med Chem, 1992)
Each block holds one compound with its values, some of them ahead of it.

Columns and labels:
[1] = tested on: Rattus norvegicus; test: Ratio of urinary excretion value (Na+ concentration) in treated rats to that in control rats, at a peroral dose of 25 mg/Kg; format: functional, Urine
[2] = tested on: Rattus norvegicus; test: Oral diuretic activity was measured after oral administration of 25 mg/kg to rats(control volume is 0.89+/-0.06); format: functional, Urine
[3] = tested on: Rattus norvegicus; test: Percent inhibition of serum creatinine by the compound given as ratio of Cr value in treated to vehicle treated ones after intraperitoneal administration of 10 mg/kg of compound to rats(vehicle 4.98+/-0.08); format: functional; details: ip
[4] = tested on: Rattus norvegicus; test: Percent inhibition of Urea nitrogen by the compound given as ratio of UN value in treated to vehicle treated ones after intraperitoneal administration of 10 mg/kg of compound to rats(vehicle 150.7+/-3.4); format: functional; details: ip
[5] = tested on: Rattus norvegicus; test: Ratio of sodium ion/potassium ion concentration in treated rats to that in control rats, at a peroral dose of 25 mg/Kg; format: functional
[6] = tested on: Rattus norvegicus; test: Effect on urinary excretion potassium and sodium after oral administration of 25 mg/kg to rats(potassium and sodium excretion in control rat is […]+/-[…]); format: functional, Urine
[7] = tested on: Rattus norvegicus; test: Serum creatinine concentration measured after intraperitoneal administration of 10 mg/kg of compound to rats(vehicle 4.98+/-0.08); format: functional
[8] = target: Adenosine A2 receptor (Rattus norvegicus, UniProt P29276+P30543)
[9] = tested on: Rattus norvegicus; test: Urea nitrogen concentration measured after intraperitoneal administration of 10 mg/kg of compound to rats(vehicle 150.7+/-3.4); format: functional
[10] = tested on: Rattus norvegicus; test: Ratio of urinary excretion value (Na+ concentration) in treated rats to that in control rats, at a peroral dose of 6.25 mg/Kg; format: functional, Urine
[11] = tested on: Rattus norvegicus; test: Ratio of urinary excretion value (urinary volume) in treated rats to that in control rats, at a peroral dose of 6.25 mg/Kg; format: functional, Urine
[12] = tested on: Rattus norvegicus; test: Ratio of urinary excretion value (urinary volume) in treated rats to that in control rats, at a peroral dose of 25 mg/Kg; format: functional, Urine
[13] = tested on: Rattus norvegicus; test: Percent inhibition of serum creatinine by the compound given as ratio of Cr value in treated to vehicle treated ones after intraperitoneal administration of 1 mg/kg of compound to rats(vehicle 3.06+/-0.68); format: functional; details: ip
[14] = tested on: Rattus norvegicus; test: Ratio of urinary excretion value (Na+ concentration) in treated rats to that in control rats, at a peroral dose of 1.6 mg/Kg; format: functional, Urine
[15] = tested on: Rattus norvegicus; test: Effect on urinary excretion potassium and sodium after oral administration of 1.6 mg/kg to rats(potassium and sodium excretion in control rat is 0.173+/-0.016); format: functional, Urine
[16] = tested on: Rattus norvegicus; test: Serum creatinine concentration measured after intraperitoneal administration of 10 mg/kg of compound to rats(vehicle 2.13+/-0.27); format: functional
[17] = tested on: Rattus norvegicus; test: Effect on urinary excretion potassium and sodium after oral administration of 25 mg/kg to rats(potassium and sodium excretion in control rat is 0.146+/-0.017); format: functional, Urine
[18] = tested on: Rattus norvegicus; test: Ratio of sodium ion/potassium ion concentration in treated rats to that in control rats, at a peroral dose of 1.6 mg/Kg; format: functional
[19] = species: Rattus norvegicus; format: functional, Urine; details: dose 1.6 mg/kg; route oral
[20] = tested on: Rattus norvegicus; test: Ratio of urinary excretion value (urinary volume) in treated rats to that in control rats, at a peroral dose of 1.6 mg/Kg; format: functional, Urine
[21] = tested on: Rattus norvegicus; test: Serum creatinine concentration measured after intraperitoneal administration of 1 mg/kg of compound to rats(vehicle 3.06+/-0.68); format: functional
[22] = tested on: Rattus norvegicus; test: Percent inhibition of serum creatinine by the compound given as ratio of Cr value in treated to vehicle treated ones after intraperitoneal administration of 10 mg/kg of compound to rats(vehicle 2.13+/-0.27); format: functional; details: ip
[23] = tested on: Rattus norvegicus; test: Urea nitrogen concentration measured after intraperitoneal administration of 1 mg/kg of compound to rats(vehicle 120.9+/-23.3); format: functional
[24] = tested on: Rattus norvegicus; test: Oral diuretic activity was measured after oral administration of 25 mg/kg to rats(control volume is 0.96+/-0.20); format: functional, Urine
[25] = tested on: Rattus norvegicus; test: Percent inhibition of Urea nitrogen by the compound given as ratio of UN value in treated to vehicle treated ones after intraperitoneal administration of 1 mg/kg of compound to rats(vehicle 120.9+/-23.3); format: functional; details: ip
[26] = tested on: Rattus norvegicus; test: Urea nitrogen concentration measured after intraperitoneal administration of 10 mg/kg of compound to rats(vehicle 129.1+/-14.5); format: functional
[27] = tested on: Rattus norvegicus; test: Urea nitrogen concentration measured after intraperitoneal administration of 1 mg/kg of compound to rats(vehicle 105.2+/-14.9); format: functional
[28] = tested on: Rattus norvegicus; test: Effect on urinary excretion potassium and sodium after oral administration of 1.6 mg/kg to rats(potassium and sodium excretion in control rat is 0.147+/-0.015); format: functional, Urine
[29] = tested on: Rattus norvegicus; test: Oral diuretic activity was measured after oral administration of 1.6 mg/kg to rats(control volume is 0.96+/-0.09); format: functional, Urine
[30] = tested on: Rattus norvegicus; test: Serum creatinine concentration measured after intraperitoneal administration of 10 mg/kg of compound to rats(vehicle 3.93+/-0.45); format: functional
[31] = tested on: Rattus norvegicus; test: Serum creatinine concentration measured after intraperitoneal administration of 1 mg/kg of compound to rats(vehicle 3.62+/-0.52); format: functional
[32] = target: T1, Adenosine receptor A1 (Cavia porcellus, UniProt P47745)
T1 sequence (P47745 whole entry): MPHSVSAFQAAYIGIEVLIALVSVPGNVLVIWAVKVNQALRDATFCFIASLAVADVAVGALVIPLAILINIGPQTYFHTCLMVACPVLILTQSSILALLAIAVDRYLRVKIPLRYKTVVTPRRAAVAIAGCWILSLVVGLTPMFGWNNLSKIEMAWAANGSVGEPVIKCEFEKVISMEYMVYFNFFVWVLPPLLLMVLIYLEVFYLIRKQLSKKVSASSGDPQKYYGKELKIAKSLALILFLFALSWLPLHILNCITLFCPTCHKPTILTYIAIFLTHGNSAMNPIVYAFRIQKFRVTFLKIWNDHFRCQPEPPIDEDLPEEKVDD
Description: Binding affinity against adenosine A1 receptor in guinea pig forebrain membranes using N6-[3H]cyclohexyladenosine as radioligand

Compound: CCCn1c(=O)c2c(nc(C(C3CC3)C3CC3)n2CC)n(CCC)c1=O
T/C [1]: 2.14
Urine volume [2]: 2.15 ml 6hr-1 100g-1
inhibition in vivo at 10 mg/kg [3]: 10%
inhibition in vivo at 10 mg/kg [4]: 5%
Na+/K+ [5]: 1.51
Na [6]: 0.348 m equiv 6hr-1 100g-1
Cr [7]: 4.5 mg/dL
Ki [8]: 14 µM
UN [9]: 142.7 mg/dL
T/C [10]: 1.24
T/C [11]: 1.19
T/C [12]: 2.42

Compound: CCCn1c(=O)c2nc(C3C(C)(C)CCC3(C)C)[nH]c2n(CCC)c1=O
inhibition in vivo at 1 mg/kg [13]: 1%
T/C [1]: 1.18
T/C [14]: 1.23
Na [15]: 0.213 m equiv 6hr-1 100g-1
Na+/K+ [5]: 1.21
Cr [16]: 1.43 mg/dL
Na [17]: 0.172 m equiv 6hr-1 100g-1
Na+/K+ [18]: 1.12
Ki [8]: > 100 µM
Urine volume [19]: 1.5 ml 6hr-1 100g-1
T/C [20]: 1.42
Cr [21]: 3.03 mg/dL
inhibition in vivo at 10 mg/kg [22]: 33%
UN [23]: 113.4 mg/dL
Urine volume [24]: 1.34 ml 6hr-1 100g-1
T/C [12]: 1.4
inhibition in vivo at 1 mg/kg [25]: 6%

Compound: Cn1c(=O)c2nc(C(C3CC3)C3CC3)[nH]c2n(C)c1=O
UN [26]: 57.2 mg/dL
T/C [14]: 1.24
Na+/K+ [18]: 1.18
UN [27]: 121.4 mg/dL
Ki [8]: 2.7 µM
T/C [20]: 0.91
Na [28]: 0.183 m equiv 6hr-1 100g-1
Urine volume [29]: 0.87 ml 6hr-1 100g-1
Cr [30]: 1.78 mg/dL
Cr [31]: 4.1 mg/dL

Ki [32]: 0.011 µM
Compound: CCCn1c(=O)c2[nH]c(CC3CCCCC3)nc2n(CCC)c1=O
